# Assay results: patent US20100137449A1, “SUBSTITUTED 1,3-CYCLOPENTADIONE MULTI-TARGET PROTEIN KINASE MODULATORS OF CANCER, ANGIOGENESIS AND THE INFLAMMATORY PATHWAYS ASSOCIATED THEREWITH” (METAPROTEOMICS, LLC, priority 2007, published 2010)
# Experiments:
# Experiment in all cases: KinaseProfiler Assay
# CaMKIIγ(h) = CaMKIIγ(h) (Homo sapiens, UniProt Q13555)
# cKit(D816V)(h) = cKit(D816V)(h) (Homo sapiens, UniProt P10721, D816V)
# JAK3(h) = target: T1, JAK3(h) (Homo sapiens, UniProt P52333)
# T1 sequence (P52333 1-1124): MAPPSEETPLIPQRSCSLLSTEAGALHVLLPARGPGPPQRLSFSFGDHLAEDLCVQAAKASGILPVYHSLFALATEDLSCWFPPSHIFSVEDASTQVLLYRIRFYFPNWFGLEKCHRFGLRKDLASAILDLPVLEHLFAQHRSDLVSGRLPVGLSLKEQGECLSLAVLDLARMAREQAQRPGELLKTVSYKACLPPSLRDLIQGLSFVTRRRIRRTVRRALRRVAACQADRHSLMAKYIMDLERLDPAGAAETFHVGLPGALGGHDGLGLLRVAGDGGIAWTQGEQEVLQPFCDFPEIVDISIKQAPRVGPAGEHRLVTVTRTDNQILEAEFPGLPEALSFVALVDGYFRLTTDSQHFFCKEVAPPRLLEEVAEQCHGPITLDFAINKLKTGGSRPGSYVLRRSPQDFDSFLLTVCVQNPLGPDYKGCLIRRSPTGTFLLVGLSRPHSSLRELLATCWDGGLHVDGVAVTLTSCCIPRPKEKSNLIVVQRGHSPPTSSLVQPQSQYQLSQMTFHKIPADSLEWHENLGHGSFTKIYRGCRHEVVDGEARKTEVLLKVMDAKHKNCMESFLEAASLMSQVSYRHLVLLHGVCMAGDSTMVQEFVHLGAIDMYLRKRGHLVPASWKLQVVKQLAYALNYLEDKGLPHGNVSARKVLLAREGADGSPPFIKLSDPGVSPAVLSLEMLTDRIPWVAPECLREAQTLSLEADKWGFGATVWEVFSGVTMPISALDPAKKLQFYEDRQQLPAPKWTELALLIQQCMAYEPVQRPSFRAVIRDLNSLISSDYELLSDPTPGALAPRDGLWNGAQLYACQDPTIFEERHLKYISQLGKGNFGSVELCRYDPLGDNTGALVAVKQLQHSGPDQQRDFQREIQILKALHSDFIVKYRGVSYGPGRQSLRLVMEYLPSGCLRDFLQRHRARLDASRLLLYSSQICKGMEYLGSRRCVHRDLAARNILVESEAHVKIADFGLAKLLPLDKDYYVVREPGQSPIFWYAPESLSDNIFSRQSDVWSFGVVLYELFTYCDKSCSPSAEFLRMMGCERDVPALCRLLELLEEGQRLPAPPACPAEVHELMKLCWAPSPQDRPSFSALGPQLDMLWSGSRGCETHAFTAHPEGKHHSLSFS
# MKK7β(h) = target: T2, MKK7β(h) (Homo sapiens, UniProt O14733)
# T2 sequence (O14733 1-419): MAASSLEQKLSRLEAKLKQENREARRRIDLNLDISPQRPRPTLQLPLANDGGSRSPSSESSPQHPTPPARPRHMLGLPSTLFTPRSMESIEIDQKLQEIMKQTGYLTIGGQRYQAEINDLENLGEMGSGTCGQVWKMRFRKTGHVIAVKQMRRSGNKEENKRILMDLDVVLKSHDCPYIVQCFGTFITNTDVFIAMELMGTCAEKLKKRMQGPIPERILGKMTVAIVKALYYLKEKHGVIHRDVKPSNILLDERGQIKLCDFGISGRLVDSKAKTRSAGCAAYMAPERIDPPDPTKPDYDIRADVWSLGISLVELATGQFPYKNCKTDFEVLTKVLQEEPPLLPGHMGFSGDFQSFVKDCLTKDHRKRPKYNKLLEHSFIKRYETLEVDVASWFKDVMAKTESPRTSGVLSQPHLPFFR
# PDGFRβ(h) = PDGFRβ(h) (Homo sapiens, UniProt P09619)
# PDGFRβ(h), sequence (P09619 33-1106): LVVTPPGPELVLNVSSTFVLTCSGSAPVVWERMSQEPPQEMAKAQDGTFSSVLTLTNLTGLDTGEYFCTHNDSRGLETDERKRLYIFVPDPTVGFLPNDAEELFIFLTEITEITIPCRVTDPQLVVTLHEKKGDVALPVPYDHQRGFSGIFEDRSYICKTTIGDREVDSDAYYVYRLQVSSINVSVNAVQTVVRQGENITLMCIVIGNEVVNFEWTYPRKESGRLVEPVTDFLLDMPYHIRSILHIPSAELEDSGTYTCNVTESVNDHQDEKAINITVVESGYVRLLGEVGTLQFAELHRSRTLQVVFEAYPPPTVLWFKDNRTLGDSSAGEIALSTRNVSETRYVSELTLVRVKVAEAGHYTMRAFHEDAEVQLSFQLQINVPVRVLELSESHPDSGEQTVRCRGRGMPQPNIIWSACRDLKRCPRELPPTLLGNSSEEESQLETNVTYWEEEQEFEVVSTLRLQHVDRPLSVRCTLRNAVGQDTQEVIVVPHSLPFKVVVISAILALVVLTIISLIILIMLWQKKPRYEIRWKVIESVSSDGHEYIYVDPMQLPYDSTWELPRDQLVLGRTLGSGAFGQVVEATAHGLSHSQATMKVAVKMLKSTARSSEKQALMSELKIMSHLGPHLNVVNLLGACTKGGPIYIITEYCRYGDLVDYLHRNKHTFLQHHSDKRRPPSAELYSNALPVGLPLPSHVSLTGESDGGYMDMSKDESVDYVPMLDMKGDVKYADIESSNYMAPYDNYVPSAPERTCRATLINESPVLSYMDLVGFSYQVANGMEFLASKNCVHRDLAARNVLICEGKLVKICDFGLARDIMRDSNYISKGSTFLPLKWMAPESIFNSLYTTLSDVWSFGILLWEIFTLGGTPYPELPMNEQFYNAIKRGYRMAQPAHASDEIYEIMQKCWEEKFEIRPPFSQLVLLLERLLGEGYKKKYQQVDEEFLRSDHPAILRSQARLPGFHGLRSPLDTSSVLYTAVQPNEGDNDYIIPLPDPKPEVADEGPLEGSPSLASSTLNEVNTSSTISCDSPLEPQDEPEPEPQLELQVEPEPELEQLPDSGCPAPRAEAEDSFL
# PKBα(h) = PKBα(h) (Homo sapiens, UniProt P31749)
# PKBα(h), sequence (P31749 whole entry): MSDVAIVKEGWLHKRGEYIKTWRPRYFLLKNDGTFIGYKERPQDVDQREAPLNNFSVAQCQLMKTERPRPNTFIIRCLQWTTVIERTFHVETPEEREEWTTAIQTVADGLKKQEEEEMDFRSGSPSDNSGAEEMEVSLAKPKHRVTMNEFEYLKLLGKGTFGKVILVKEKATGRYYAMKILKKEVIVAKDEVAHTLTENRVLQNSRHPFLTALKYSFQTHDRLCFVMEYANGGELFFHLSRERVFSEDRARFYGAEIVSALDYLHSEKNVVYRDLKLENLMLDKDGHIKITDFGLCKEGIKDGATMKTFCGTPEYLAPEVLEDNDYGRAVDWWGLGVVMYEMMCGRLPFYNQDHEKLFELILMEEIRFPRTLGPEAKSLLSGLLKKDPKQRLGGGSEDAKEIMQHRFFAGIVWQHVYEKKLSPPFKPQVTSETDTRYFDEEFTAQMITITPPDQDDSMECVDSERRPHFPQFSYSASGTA
# PKCβII(h) = PKCβII(h) (Homo sapiens, UniProt P05771)
# PKCβII(h), sequence (P05771 1-673 isoform P05771-2): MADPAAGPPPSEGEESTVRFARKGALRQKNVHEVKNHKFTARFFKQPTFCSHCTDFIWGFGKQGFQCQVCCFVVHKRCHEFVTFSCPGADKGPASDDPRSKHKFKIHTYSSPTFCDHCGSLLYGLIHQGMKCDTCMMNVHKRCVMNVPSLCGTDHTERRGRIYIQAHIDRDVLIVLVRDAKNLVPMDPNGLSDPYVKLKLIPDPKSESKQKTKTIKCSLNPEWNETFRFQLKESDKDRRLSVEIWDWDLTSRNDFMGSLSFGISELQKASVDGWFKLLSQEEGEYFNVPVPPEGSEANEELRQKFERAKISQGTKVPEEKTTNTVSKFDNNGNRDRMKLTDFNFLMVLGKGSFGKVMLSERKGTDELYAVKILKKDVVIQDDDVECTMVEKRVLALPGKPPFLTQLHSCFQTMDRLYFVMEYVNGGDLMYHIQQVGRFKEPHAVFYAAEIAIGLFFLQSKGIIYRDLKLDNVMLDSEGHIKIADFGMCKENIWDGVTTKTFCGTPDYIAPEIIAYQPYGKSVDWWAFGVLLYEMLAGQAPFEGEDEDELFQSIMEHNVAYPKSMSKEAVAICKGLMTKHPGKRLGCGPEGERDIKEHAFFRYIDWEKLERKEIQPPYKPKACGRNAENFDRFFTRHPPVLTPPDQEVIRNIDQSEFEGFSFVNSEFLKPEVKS
# PTK5(h) = PTK5(h) (Homo sapiens, UniProt P42685)
# PTK5(h), sequence (P42685 whole entry): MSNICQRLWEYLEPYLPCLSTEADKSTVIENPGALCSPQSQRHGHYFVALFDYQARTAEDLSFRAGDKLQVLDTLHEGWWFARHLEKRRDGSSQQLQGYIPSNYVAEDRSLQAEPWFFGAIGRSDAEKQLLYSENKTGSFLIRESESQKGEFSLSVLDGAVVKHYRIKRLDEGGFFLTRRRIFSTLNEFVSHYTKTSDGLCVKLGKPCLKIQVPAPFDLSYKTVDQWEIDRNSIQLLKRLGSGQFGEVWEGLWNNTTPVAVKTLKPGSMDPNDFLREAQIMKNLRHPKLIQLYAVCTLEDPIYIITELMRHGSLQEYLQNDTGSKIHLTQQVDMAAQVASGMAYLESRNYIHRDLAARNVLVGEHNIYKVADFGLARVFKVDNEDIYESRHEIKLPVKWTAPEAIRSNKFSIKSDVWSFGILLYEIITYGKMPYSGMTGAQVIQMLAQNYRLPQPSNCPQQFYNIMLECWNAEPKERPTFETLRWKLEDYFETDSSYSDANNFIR
# TSSK2(h) = target: T3, TSSK2(h) (Homo sapiens, UniProt Q96PF2)
# T3 sequence (Q96PF2 1-358): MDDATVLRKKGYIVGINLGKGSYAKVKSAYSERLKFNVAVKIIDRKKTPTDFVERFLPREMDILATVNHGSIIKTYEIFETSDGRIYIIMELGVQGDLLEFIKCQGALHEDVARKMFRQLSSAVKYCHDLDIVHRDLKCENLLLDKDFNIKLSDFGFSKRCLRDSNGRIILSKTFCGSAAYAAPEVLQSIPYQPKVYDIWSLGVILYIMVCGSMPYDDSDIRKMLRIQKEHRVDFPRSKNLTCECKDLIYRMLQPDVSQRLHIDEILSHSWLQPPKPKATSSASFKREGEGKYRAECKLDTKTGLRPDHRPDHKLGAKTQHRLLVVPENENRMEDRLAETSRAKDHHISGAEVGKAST
# cKit(D816V)(h), sequence (P10721 26-976 D816V): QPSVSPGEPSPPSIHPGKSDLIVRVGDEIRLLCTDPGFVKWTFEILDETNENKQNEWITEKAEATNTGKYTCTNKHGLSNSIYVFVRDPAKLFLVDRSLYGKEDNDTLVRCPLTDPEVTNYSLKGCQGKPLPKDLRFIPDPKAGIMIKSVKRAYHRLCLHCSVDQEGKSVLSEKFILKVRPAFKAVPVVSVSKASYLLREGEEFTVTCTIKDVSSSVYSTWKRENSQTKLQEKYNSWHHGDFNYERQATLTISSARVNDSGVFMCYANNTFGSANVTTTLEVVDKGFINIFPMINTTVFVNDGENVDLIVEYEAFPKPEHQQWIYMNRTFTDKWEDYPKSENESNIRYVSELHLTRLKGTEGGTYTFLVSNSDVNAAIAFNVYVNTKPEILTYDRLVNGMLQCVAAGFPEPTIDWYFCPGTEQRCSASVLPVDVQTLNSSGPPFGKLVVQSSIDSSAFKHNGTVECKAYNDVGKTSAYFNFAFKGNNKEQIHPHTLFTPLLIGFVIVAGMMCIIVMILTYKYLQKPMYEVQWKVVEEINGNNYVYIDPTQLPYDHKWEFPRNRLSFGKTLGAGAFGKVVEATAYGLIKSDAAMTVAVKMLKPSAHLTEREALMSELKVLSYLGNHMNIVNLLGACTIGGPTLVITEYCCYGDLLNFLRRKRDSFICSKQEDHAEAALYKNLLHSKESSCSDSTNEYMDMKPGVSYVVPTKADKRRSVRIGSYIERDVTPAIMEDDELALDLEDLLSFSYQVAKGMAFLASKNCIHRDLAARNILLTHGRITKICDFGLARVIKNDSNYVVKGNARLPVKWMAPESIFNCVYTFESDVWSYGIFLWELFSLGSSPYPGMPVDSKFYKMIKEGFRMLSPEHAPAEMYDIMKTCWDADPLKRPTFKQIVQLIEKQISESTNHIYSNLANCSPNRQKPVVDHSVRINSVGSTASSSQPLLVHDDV
# CaMKIIγ(h), sequence (Q13555 whole entry): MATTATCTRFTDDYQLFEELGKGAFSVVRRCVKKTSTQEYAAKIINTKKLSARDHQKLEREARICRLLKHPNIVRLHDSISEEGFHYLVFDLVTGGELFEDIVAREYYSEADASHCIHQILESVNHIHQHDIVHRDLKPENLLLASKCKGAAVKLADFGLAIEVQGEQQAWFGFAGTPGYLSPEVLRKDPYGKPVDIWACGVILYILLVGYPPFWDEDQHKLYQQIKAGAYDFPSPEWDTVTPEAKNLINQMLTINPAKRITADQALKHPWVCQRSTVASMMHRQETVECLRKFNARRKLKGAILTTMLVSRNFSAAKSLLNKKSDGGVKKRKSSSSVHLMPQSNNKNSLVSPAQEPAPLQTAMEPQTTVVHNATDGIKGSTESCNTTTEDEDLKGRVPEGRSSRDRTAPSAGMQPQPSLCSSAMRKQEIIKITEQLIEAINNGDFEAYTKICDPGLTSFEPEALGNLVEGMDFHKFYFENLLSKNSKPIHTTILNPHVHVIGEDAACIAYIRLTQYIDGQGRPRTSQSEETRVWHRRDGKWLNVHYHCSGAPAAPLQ
smiles,measurement,setting,value
"CC(C)CCC(=O)[C@]1(O)C(O)=C(C(=O)C(C)C)C(=O)[C@H]1CCC(C)C [TH2, tetrahydroiso-cohumulone]",kinase inhibition,CaMKIIγ(h); 1 μg/ml,109% of control
same,kinase inhibition,CaMKIIγ(h); 5 μg/ml,109% of control
same,kinase inhibition,CaMKIIγ(h); 25 μg/ml,131% of control
same,kinase inhibition,CaMKIIγ(h); 50 μg/ml,108% of control
same,kinase inhibition,CaMKIIγ(h); 100 μg/ml,101% of control
same,kinase inhibition,cKit(D816V)(h); 1 μg/ml,109% of control
same,kinase inhibition,cKit(D816V)(h); 5 μg/ml,105% of control
same,kinase inhibition,cKit(D816V)(h); 25 μg/ml,98% of control
same,kinase inhibition,cKit(D816V)(h); 50 μg/ml,82% of control
same,kinase inhibition,cKit(D816V)(h); 100 μg/ml,87% of control
same,kinase inhibition,JAK3(h); 1 μg/ml,74% of control
same,kinase inhibition,JAK3(h); 5 μg/ml,67% of control
same,kinase inhibition,JAK3(h); 25 μg/ml,62% of control
same,kinase inhibition,JAK3(h); 50 μg/ml,53% of control
same,kinase inhibition,JAK3(h); 100 μg/ml,35% of control
same,kinase inhibition,MKK7β(h); 1 μg/ml,100% of control
same,kinase inhibition,MKK7β(h); 5 μg/ml,110% of control
same,kinase inhibition,MKK7β(h); 25 μg/ml,111% of control
same,kinase inhibition,MKK7β(h); 50 μg/ml,82% of control
same,kinase inhibition,MKK7β(h); 100 μg/ml,72% of control
same,kinase inhibition,PDGFRβ(h); 1 μg/ml,111% of control
same,kinase inhibition,PDGFRβ(h); 5 μg/ml,110% of control
same,kinase inhibition,PDGFRβ(h); 25 μg/ml,53% of control
same,kinase inhibition,PDGFRβ(h); 50 μg/ml,50% of control
same,kinase inhibition,PDGFRβ(h); 100 μg/ml,44% of control
same,kinase inhibition,PKBα(h); 1 μg/ml,123% of control
same,kinase inhibition,PKBα(h); 5 μg/ml,130% of control
same,kinase inhibition,PKBα(h); 25 μg/ml,126% of control
same,kinase inhibition,PKBα(h); 50 μg/ml,118% of control
same,kinase inhibition,PKBα(h); 100 μg/ml,79% of control
same,kinase inhibition,PKCβII(h); 1 μg/ml,107% of control
same,kinase inhibition,PKCβII(h); 5 μg/ml,105% of control
same,kinase inhibition,PKCβII(h); 25 μg/ml,99% of control
same,kinase inhibition,PKCβII(h); 50 μg/ml,103% of control
same,kinase inhibition,PKCβII(h); 100 μg/ml,98% of control
same,kinase inhibition,PTK5(h); 1 μg/ml,116% of control
same,kinase inhibition,PTK5(h); 5 μg/ml,105% of control
same,kinase inhibition,PTK5(h); 25 μg/ml,113% of control
same,kinase inhibition,PTK5(h); 50 μg/ml,112% of control
same,kinase inhibition,PTK5(h); 100 μg/ml,116% of control
same,kinase inhibition,TSSK2(h); 1 μg/ml,106% of control
same,kinase inhibition,TSSK2(h); 5 μg/ml,99% of control
same,kinase inhibition,TSSK2(h); 25 μg/ml,100% of control
same,kinase inhibition,TSSK2(h); 50 μg/ml,97% of control
same,kinase inhibition,TSSK2(h); 100 μg/ml,87% of control
